Data set [1] is described as follows: Met bis-alkylation (bis-sulfonium staple) with linker c, 1,4-bis(bromomethyl)benzene (1.2 equiv), 1% HCOOH (pH ~3), 24 h. The following applies: the molecule shown is the open-chain precursor, MeCN/H2O 30:70 (SI: 1:3) + 1% HCOOH, small amount of DMF, 10.0 mM, 25.0 °C.
A short description of data set [2]: Met bis-alkylation (bis-sulfonium staple) of one unprotected peptide with different dihalide linkers (1.2 equiv), 1% HCOOH (pH ~3), 24 h. The following applies: the molecule shown is the open-chain precursor, MeCN/H2O 30:70 (SI: 1:3) + 1% HCOOH, small amount of DMF, 10.0 mM, 25.0 °C.
Another data set concerns HeLa cells. In words: Flow cytometry cellular uptake in HeLa cells. Type of data set: cell-based. The following applies: 10% fetal bovine serum, 5, 10, 20 µM, Fig. S5. Background: A flow cytometer gives signals particle by particle.
The nature of data set [3]: Met bis-alkylation (bis-sulfonium staple) with linker a, 1,3-bis(bromomethyl)benzene (1.2 equiv), 1% HCOOH (pH ~3), 24 h. The following applies: the molecule shown is the open-chain precursor, MeCN/H2O 30:70 (SI: 1:3) + 1% HCOOH, small amount of DMF, 10.0 mM, 25.0 °C.

Experimental findings from publication PMC5931191, “Reversible stapling of unprotected peptides via chemoselective methionine bis-alkylation/dealkylation” (Chemical Science, 2018) are described below.

Bounds are passed on as bounds.

With `CSCC[C@H](NC(=O)[C@H](CC(C)C)NC(=O)[C@H](CS)NC(=O)[C@H](CC[S+](C)Cc1ccc(CBr)cc1)NC(=O)[C@H](Cc1c[nH]c2ccccc12)NC(C)=O)C(=O)N[C@@H](C)C(N)=O` (stereo partly drawn) [Ac-Trp-Met-Cys-Leu-Met-Ala-NH2], in data set [1] (22-membered ring), the ring closure, conversion by HPLC was above 95%.

For `CSCC[C@H](NC(=O)[C@H](CC(=O)O)NC(=O)CNC(=O)[C@H](CCCNC(=N)N)NC(=O)[C@H](CC[S+](C)Cc1ccccc1CBr)NC(=O)[C@H](Cc1c[nH]c2ccccc12)NC(C)=O)C(N)=O` (stereo partly drawn) [Ac-Trp-Met-Arg-Gly-Asp-Met-NH2 + 1,2-bis(bromomethyl)benzene], the ring closure, conversion by HPLC in data set [2] (23-membered ring) came to 58%.

Regarding `CSCC[C@H](NC(=O)[C@H](CC(=O)O)NC(=O)CNC(=O)[C@H](CCCNC(=N)N)NC(=O)[C@H](CC[S+](C)C/C=C/CBr)NC(=O)[C@H](Cc1c[nH]c2ccccc12)NC(C)=O)C(N)=O` (stereo partly drawn) [Ac-Trp-Met-Arg-Gly-Asp-Met-NH2 + (E)-1,4-dibromobut-2-ene], in data set [2] (23-membered ring), the ring closure, conversion by HPLC came to 93%.

Take `CSCC[C@H](NC(=O)[C@H](CC(=O)O)NC(=O)CNC(=O)[C@H](CCCNC(=N)N)NC(=O)[C@H](CC(=O)O)NC(=O)CNC(=O)[C@H](CCCNC(=N)N)NC(=O)[C@H](CC[S+](C)Cc1ccc(CBr)cc1)NC(=O)[C@H](Cc1c[nH]c2ccccc12)NC(C)=O)C(N)=O` (stereo partly drawn) [Ac-Trp-Met-Arg-Gly-Asp-Arg-Gly-Asp-Met-NH2]: the ring closure, conversion by HPLC in data set [1] (34-membered ring) amounted to 54%.

Take `CSCC[C@H](NC(=O)[C@H](CC(=O)O)NC(=O)CNC(=O)[C@H](CCCNC(=N)N)NC(=O)[C@H](CC[S+](C)Cc1ccc(-c2ccc(CBr)cc2)cc1)NC(=O)[C@H](Cc1c[nH]c2ccccc12)NC(C)=O)C(N)=O` (stereo partly shown): the ring closure, conversion by HPLC in data set [2] (29-membered ring) was 60%.

In the case of “FITC-βA-(cyclo-i)-MRRRM-NH2 (sidechain bridge or staple) [11i, peptide 11 cyclized using linker i]”, the “cellular uptake efficiency (flow cytometry) in the presence of serum” value in the data set with HeLa cells is “same tendency as in the absence of serum”.

Take `CSCC[C@H](NC(=O)[C@H](CC(=O)O)NC(=O)CNC(=O)[C@H](CCCNC(=N)N)NC(=O)[C@H](CC[S+](C)CC(=O)C(=O)CBr)NC(=O)[C@H](Cc1c[nH]c2ccccc12)NC(C)=O)C(N)=O` (stereo partly drawn) [Ac-Trp-Met-Arg-Gly-Asp-Met-NH2 + 1,4-dibromobutane-2,3-dione]: in data set [2] (23-membered ring), the ring closure, conversion by HPLC was 64%.

With `CSCC[C@H](NC(=O)[C@H](CC(C)C)NC(=O)[C@H](CS)NC(=O)[C@H](CC[S+](C)Cc1cccc(CBr)c1)NC(=O)[C@H](Cc1c[nH]c2ccccc12)NC(C)=O)C(=O)N[C@@H](C)C(N)=O` (stereo partly drawn) [Ac-Trp-Met-Cys-Leu-Met-Ala-NH2], the ring closure, conversion by HPLC in data set [3] (21-membered ring) is above 95%.

With `CSCC[C@H](NC(=O)[C@H](CC(=O)O)NC(=O)CNC(=O)[C@H](CCCNC(=N)N)NC(=O)[C@H](CC[S+](C)Cc1ccc(CBr)cc1)NC(=O)[C@H](Cc1c[nH]c2ccccc12)NC(C)=O)C(N)=O` (stereo partly drawn) [Ac-Trp-Met-Arg-Gly-Asp-Met-NH2 + 1,4-bis(bromomethyl)benzene], in data set [2] (25-membered ring), the ring closure, conversion by HPLC worked out at 49%.

`CSCC[C@H](NC(=O)[C@H](CC(=O)O)NC(=O)[C@@H](NC(=O)[C@H](Cc1c[nH]cn1)NC(=O)[C@H](CC[S+](C)Cc1ccc(CBr)cc1)NC(=O)[C@H](Cc1c[nH]c2ccccc12)NC(C)=O)C(C)C)C(=O)N[C@@H](C)C(N)=O` (stereo partly drawn) [Ac-Trp-Met-His-Val-Asp-Met-Ala-NH2]: the ring closure, conversion by HPLC in data set [1] (25-membered ring) is 85%.

For the molecule `CSCC[C@H](NC(=O)[C@H](Cc1c[nH]cn1)NC(=O)[C@@H]1CCCN1C(=O)[C@H](CC[S+](C)Cc1ccc(CBr)cc1)NC(=O)[C@H](Cc1c[nH]c2ccccc12)NC(C)=O)C(=O)N[C@@H](C)C(N)=O` (stereo partly drawn) [Ac-Trp-Met-Pro-His-Met-Ala-NH2], in data set [1] (22-membered ring), the ring closure, conversion by HPLC amounted to 74%.

Turning to `CC[C@H](C)[C@H](NC(=O)[C@H](CCCCN)NC(=O)[C@H](CC[S+](C)Cc1cccc(CBr)c1)NC(=O)[C@H](Cc1c[nH]c2ccccc12)NC(C)=O)C(=O)N[C@@H](CCC(=O)O)C(=O)N[C@@H](CCSC)C(=O)N[C@@H](C)C(N)=O` (stereo partly drawn) [Ac-Trp-Met-Lys-Ile-Glu-Met-Ala-NH2], the ring closure, conversion by HPLC in data set [3] (24-membered ring) was 77%.

`CSCC[C@H](NC(=O)[C@H](CC(=O)O)NC(=O)CNC(=O)[C@H](CCCNC(=N)N)NC(=O)[C@H](CC[S+](C)CCCCBr)NC(=O)[C@H](Cc1c[nH]c2ccccc12)NC(C)=O)C(N)=O` (stereo partly drawn) [Ac-Trp-Met-Arg-Gly-Asp-Met-NH2 + 1,4-dibromobutane]: the ring closure, conversion by HPLC in data set [2] (23-membered ring) turned out to be 0%.

Take `CSCC[C@H](NC(=O)[C@H](CC(=O)O)NC(=O)CNC(=O)[C@H](CCCNC(=N)N)NC(=O)[C@H](CC[S+](C)CCCCI)NC(=O)[C@H](Cc1c[nH]c2ccccc12)NC(C)=O)C(N)=O` (stereo partly drawn) [Ac-Trp-Met-Arg-Gly-Asp-Met-NH2 + 1,4-diiodobutane]: the ring closure, conversion by HPLC in data set [2] (23-membered ring) was found to be 0%.

Turning to `CSCC[C@H](NC(=O)[C@H](CCC(=O)O)NC(=O)[C@H](CCCCN)NC(=O)[C@H](CC[S+](C)Cc1cccc(CBr)c1)NC(=O)[C@H](Cc1c[nH]c2ccccc12)NC(C)=O)C(=O)N[C@@H](C)C(N)=O` (stereo partly drawn) [Ac-Trp-Met-Lys-Glu-Met-Ala-NH2], the ring closure, conversion by HPLC in data set [3] (21-membered ring) was 85%.

As to `CSCC[C@H](NC(=O)[C@H](CC(=O)O)NC(=O)[C@@H](NC(=O)[C@H](Cc1c[nH]cn1)NC(=O)[C@H](CC[S+](C)Cc1cccc(CBr)c1)NC(=O)[C@H](Cc1c[nH]c2ccccc12)NC(C)=O)C(C)C)C(=O)N[C@@H](C)C(N)=O` (stereo partly drawn) [Ac-Trp-Met-His-Val-Asp-Met-Ala-NH2], the ring closure, conversion by HPLC in data set [3] (24-membered ring) is 73%.

In the case of `CSCC[C@H](NC(=O)CNC(=O)[C@H](Cc1ccc(O)cc1)NC(=O)[C@@H]1CCCN1C(=O)[C@H](CC[S+](C)Cc1cccc(CBr)c1)NC(=O)[C@H](Cc1c[nH]c2ccccc12)NC(C)=O)C(=O)N[C@@H](C)C(N)=O` (stereo partly drawn) [Ac-Trp-Met-Pro-Tyr-Gly-Met-Ala-NH2], the ring closure, conversion by HPLC in data set [3] (24-membered ring) is 70%.

For the molecule `CSCC[C@H](NC(=O)[C@H](CC(=O)O)NC(=O)CNC(=O)[C@H](CCCNC(=N)N)NC(=O)[C@H](CC(=O)O)NC(=O)CNC(=O)[C@H](CCCNC(=N)N)NC(=O)[C@H](CC[S+](C)Cc1cccc(CBr)c1)NC(=O)[C@H](Cc1c[nH]c2ccccc12)NC(C)=O)C(N)=O` (stereo partly drawn) [Ac-Trp-Met-Arg-Gly-Asp-Arg-Gly-Asp-Met-NH2], in data set [3] (33-membered ring), the ring closure, conversion by HPLC worked out at 85%.

For the molecule `CSCC[C@H](NC(=O)[C@H](CCC(=O)O)NC(=O)[C@H](CCCCN)NC(=O)[C@H](CC[S+](C)Cc1ccc(CBr)cc1)NC(=O)[C@H](Cc1c[nH]c2ccccc12)NC(C)=O)C(=O)N[C@@H](C)C(N)=O` (stereo partly drawn) [Ac-Trp-Met-Lys-Glu-Met-Ala-NH2], the ring closure, conversion by HPLC in data set [1] (22-membered ring) was 73%.

For `CC[C@H](C)[C@H](NC(=O)[C@H](CCCCN)NC(=O)[C@H](CC[S+](C)Cc1ccc(CBr)cc1)NC(=O)[C@H](Cc1c[nH]c2ccccc12)NC(C)=O)C(=O)N[C@@H](CCC(=O)O)C(=O)N[C@@H](CCSC)C(=O)N[C@@H](C)C(N)=O` (stereo partly drawn) [Ac-Trp-Met-Lys-Ile-Glu-Met-Ala-NH2], the ring closure, conversion by HPLC in data set [1] (25-membered ring) was determined as 83%.

Consider “FITC-βA-(cyclo-a)-MRRRM-NH2 (sidechain bridge or staple) [11a, peptide 11 cyclized using linker a]”, for which the “cellular uptake efficiency (flow cytometry) in the presence of serum” value with HeLa cells is “same tendency as in the absence of serum”.

As to `CSCC[C@H](NC(=O)CNC(=O)[C@H](Cc1ccc(O)cc1)NC(=O)[C@@H]1CCCN1C(=O)[C@H](CC[S+](C)Cc1ccc(CBr)cc1)NC(=O)[C@H](Cc1c[nH]c2ccccc12)NC(C)=O)C(=O)N[C@@H](C)C(N)=O` (stereo partly drawn) [Ac-Trp-Met-Pro-Tyr-Gly-Met-Ala-NH2], in data set [1] (25-membered ring), the ring closure, conversion by HPLC stood at 81%.

Turning to `CSCC[C@H](NC(=O)[C@H](Cc1c[nH]cn1)NC(=O)[C@@H]1CCCN1C(=O)[C@H](CC[S+](C)Cc1cccc(CBr)c1)NC(=O)[C@H](Cc1c[nH]c2ccccc12)NC(C)=O)C(=O)N[C@@H](C)C(N)=O` (stereo partly drawn) [Ac-Trp-Met-Pro-His-Met-Ala-NH2], in data set [3] (21-membered ring), the ring closure, conversion by HPLC was 84%.

Consider `CSCC[C@H](NC(=O)[C@H](CC(=O)O)NC(=O)CNC(=O)[C@H](CCCNC(=N)N)NC(=O)[C@H](CC[S+](C)Cc1cccc(CBr)c1)NC(=O)[C@H](Cc1c[nH]c2ccccc12)NC(C)=O)C(N)=O` (stereo partly drawn) [Ac-Trp-Met-Arg-Gly-Asp-Met-NH2 + 1,3-bis(bromomethyl)benzene], for which the ring closure, conversion by HPLC in data set [2] (24-membered ring) was found to be 88%.

On to `CSCC[C@H](NC(=O)[C@H](CC(=O)O)NC(=O)CNC(=O)[C@H](CCCNC(=N)N)NC(=O)[C@H](CC[S+](C)Cc1nc2ccccc2nc1CBr)NC(=O)[C@H](Cc1c[nH]c2ccccc12)NC(C)=O)C(N)=O` (stereo partly shown), for which, in data set [2] (23-membered ring), the ring closure, conversion by HPLC stood at 53%.
